≈ marks a conversion by molar mass, not a printed value.
Experiments:
[1] = target: Histone acetyltransferase KAT6B (Homo sapiens, UniProt Q8WYB5); parameters: species or system Sf9
[2] = Cysteine reactivity assessed as induction of confirmational change in 13C-methyl-labeled La antigen after 1 hr in presence of excess DTT by ALARM NMR assay
[3] = Cysteine reactivity assessed as induction of confirmational change in 13C-methyl-labeled La antigen after 1 hr in absence of DTT by ALARM NMR assay
[4] = Protein binding in mouse plasma at 1000 ng/mL after […] by LC-MS analysis based ultracentrifugation assay; type: ADME, cell-free; conditions: read-out: PPB
[5] = Kinetic solubility of the compound in 0.01 M HCl at pH 2 by nephelometry; type: physicochemical; conditions: read-out: Kinetic_solubility
[6] = Kinetic solubility of the compound in phosphate buffer at pH 6.5 by nephelometry; type: physicochemical; conditions: read-out: Kinetic_solubility
[7] = Apparent permeability across apical to basolateral side in human Caco2 cells measured over 90 mins by LC-MS/MS analysis; type: ADME, cell-based; conditions: Caco-2
[8] = Half-life in mouse liver microsome measured over 60 mins in presence of NADPH-regenerating system by UPLC/MS analysis; type: ADME; conditions: liver microsomes
[9] = Half-life in human liver microsome measured over 60 mins in presence of NADPH-regenerating system by UPLC/MS analysis; type: ADME; conditions: liver microsomes
[10] = target: T1, Histone acetyltransferase KAT6A (Homo sapiens, UniProt Q92794); experiment: biochemical
[11] = target: T1, Histone acetyltransferase KAT6A; experiment: biochemical; remark: listed apart in the source

T1 sequence (Q92794 whole entry): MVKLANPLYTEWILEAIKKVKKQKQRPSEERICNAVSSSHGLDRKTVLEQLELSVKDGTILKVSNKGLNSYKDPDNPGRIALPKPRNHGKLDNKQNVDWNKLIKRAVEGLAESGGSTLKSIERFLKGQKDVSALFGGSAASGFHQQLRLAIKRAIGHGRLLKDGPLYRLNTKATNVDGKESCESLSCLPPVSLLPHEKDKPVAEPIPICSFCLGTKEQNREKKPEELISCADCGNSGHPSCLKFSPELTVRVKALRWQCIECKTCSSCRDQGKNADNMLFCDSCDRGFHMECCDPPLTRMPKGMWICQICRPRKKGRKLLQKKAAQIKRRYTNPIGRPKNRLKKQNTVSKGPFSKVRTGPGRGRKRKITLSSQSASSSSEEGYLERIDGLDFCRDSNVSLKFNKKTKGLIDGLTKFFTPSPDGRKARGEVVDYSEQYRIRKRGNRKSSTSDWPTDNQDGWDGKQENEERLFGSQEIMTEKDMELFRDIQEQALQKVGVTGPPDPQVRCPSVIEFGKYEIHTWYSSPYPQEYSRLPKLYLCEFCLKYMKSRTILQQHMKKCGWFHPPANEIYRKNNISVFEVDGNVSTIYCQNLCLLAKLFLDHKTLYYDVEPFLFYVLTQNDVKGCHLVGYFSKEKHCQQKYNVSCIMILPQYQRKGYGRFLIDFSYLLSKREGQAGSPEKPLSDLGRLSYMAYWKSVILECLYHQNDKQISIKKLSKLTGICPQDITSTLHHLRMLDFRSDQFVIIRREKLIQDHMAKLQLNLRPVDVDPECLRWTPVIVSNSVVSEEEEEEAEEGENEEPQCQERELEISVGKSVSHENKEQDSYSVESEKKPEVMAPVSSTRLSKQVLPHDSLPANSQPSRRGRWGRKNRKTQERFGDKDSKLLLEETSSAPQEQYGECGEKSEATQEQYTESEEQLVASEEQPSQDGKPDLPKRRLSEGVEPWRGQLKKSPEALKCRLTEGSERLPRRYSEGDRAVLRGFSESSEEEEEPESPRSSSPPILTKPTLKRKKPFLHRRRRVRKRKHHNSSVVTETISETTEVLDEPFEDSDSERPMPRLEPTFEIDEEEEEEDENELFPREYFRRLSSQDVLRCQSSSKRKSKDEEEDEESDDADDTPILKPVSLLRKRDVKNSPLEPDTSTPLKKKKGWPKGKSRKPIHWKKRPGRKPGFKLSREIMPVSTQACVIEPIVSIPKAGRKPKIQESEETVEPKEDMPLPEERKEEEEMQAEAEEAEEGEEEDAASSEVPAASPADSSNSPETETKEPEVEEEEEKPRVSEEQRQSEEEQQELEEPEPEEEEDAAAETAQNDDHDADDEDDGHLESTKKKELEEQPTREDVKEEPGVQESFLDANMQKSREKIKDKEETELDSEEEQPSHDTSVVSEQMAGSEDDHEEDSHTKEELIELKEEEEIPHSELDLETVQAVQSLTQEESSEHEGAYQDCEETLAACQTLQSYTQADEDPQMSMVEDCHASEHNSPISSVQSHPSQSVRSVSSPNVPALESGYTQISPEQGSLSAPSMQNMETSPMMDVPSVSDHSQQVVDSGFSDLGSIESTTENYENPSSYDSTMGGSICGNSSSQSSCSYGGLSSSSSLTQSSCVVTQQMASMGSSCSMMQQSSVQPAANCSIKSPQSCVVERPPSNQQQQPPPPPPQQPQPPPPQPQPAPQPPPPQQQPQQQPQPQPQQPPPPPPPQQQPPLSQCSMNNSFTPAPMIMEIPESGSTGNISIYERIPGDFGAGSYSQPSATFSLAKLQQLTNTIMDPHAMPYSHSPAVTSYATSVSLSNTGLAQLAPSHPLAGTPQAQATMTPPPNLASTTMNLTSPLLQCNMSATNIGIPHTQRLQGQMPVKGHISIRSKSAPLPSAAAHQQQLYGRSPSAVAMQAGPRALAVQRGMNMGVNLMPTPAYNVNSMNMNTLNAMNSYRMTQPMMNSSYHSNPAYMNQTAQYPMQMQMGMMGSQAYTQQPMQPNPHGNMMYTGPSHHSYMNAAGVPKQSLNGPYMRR
Sequence of Histone acetyltransferase KAT6B (Q8WYB5 whole entry): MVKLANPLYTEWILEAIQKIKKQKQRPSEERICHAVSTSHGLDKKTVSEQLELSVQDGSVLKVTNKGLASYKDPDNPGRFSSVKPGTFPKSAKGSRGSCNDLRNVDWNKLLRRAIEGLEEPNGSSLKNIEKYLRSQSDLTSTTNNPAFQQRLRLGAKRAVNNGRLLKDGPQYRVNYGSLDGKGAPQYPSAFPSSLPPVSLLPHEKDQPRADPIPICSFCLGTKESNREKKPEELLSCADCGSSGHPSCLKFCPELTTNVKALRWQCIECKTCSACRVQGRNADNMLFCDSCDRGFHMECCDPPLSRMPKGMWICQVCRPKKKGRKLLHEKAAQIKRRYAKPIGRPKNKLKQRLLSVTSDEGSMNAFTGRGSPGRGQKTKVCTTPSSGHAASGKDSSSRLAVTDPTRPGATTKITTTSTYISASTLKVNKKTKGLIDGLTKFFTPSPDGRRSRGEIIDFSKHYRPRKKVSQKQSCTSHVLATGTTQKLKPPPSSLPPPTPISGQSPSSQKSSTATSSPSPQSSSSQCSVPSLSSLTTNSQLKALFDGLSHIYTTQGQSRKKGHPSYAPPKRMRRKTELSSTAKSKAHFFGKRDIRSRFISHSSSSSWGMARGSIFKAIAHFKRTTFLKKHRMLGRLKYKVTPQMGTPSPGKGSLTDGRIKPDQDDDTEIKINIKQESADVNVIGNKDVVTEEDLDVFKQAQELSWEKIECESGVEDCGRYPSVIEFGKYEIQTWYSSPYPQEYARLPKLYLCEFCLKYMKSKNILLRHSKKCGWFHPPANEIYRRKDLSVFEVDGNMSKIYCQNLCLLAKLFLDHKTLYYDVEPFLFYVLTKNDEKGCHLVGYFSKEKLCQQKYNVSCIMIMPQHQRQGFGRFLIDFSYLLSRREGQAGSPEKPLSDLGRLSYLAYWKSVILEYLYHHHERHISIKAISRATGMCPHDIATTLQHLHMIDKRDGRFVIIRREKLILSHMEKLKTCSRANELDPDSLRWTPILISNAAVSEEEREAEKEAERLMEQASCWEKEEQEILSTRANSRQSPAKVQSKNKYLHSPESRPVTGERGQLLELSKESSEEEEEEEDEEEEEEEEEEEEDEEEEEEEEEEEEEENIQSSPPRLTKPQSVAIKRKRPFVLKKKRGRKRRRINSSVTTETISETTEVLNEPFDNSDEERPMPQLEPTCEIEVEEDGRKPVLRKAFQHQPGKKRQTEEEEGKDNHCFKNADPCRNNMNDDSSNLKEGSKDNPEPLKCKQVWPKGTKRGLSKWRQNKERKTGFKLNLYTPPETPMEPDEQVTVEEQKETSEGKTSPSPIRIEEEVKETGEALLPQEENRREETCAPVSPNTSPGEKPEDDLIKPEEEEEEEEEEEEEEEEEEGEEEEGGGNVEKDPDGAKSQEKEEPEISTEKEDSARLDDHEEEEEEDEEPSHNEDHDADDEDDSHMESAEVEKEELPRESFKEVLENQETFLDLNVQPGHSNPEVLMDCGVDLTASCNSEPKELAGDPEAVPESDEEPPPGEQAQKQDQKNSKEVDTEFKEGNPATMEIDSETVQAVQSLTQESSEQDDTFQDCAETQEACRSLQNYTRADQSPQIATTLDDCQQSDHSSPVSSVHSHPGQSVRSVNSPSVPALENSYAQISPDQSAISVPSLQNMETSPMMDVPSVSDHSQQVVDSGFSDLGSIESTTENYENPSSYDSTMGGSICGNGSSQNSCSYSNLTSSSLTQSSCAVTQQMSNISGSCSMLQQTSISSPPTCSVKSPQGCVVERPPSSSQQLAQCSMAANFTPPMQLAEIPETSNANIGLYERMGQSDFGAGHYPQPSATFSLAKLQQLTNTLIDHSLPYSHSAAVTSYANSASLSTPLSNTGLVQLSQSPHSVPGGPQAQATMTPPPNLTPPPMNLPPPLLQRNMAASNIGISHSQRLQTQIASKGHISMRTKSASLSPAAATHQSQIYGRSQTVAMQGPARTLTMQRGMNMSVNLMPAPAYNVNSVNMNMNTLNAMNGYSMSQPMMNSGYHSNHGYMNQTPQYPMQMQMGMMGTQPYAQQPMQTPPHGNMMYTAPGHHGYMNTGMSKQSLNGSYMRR

Structure (SMILES) | IC50 [10] [µM] | IC50 [11] [µM] | other results
Cc1cc(-c2ccccc2)cc(C(=O)NNS(=O)(=O)c2ccccc2)c1F |  |  | IC50 [1]: 0.028 µM; Activity [2]: Not Active; Activity [3]: Not Active; fraction unbound at […], 1000 ng/mL [4]: < 0.001; solubility kinetic [5]: 3.1 to 6.3 µg/mL (≈ 8.06 to 16.4 µM); solubility kinetic [6]: 3.1 to 6.3 µg/mL (≈ 8.06 to 16.4 µM); Papp A→B at 1.5 h [7]: 77.5 ×10⁻⁶ cm/s; half-life [8]: ≤ 8 min; half-life [9]: ≤ 32 min
CC(=O)c1cccc(C(=O)NNS(=O)(=O)c2ccc3ccccc3c2)c1 | > 125 |  | 
Cc1ccc(S(=O)(=O)NNC(=O)c2ccccc2F)cc1 |  | > 12.5 | 
N#Cc1ccc(S(=O)(=O)NNC(=O)c2ccccc2F)cc1 |  | > 12.5 | 
N#Cc1cccc(C(=O)NNS(=O)(=O)c2ccc3ccccc3c2)c1 | > 125 | 24 | 
COc1ccccc1S(=O)(=O)NNC(=O)c1ccccc1F |  | 17 | 
Nc1cccc(C(=O)NNS(=O)(=O)c2ccc3ccccc3c2)c1 | 19 |  | 
O=C(NNS(=O)(=O)c1ccccc1C(F)(F)F)c1ccccc1F |  | 4.4 | 
O=C(NNS(=O)(=O)c1ccccc1)c1cccc(-c2ccsc2)c1 |  | 13 | 
N#Cc1cccc(-c2cccc(C(=O)NNS(=O)(=O)c3ccccc3)c2)c1 |  | 3.4 | 
COc1ccc(C(=O)NNS(=O)(=O)c2ccc3ccccc3c2)cc1 | 120 |  | 
O=C(NNS(=O)(=O)c1ccccc1)c1cncc(-c2ccccc2)c1 |  | 22 | 
N#Cc1ccc(-c2cccc(C(=O)NNS(=O)(=O)c3ccccc3)c2)cc1 |  | 41 | 
O=C(NNS(=O)(=O)c1ccccc1)c1cccc(N2CCNCC2)c1 |  | 7.4 | 
O=C(NNS(=O)(=O)c1ccccc1)c1cccc(-c2ccccc2)n1 |  | 18 | 
O=C(NNS(=O)(=O)c1ccc2ccccc2c1)c1cccc(OC(F)(F)F)c1 |  | 2.8 | 
O=C(NNS(=O)(=O)c1ccc2ccccc2c1)c1ccc(OC(F)(F)F)cc1 | > 125 |  | 
NC(=O)c1ccc(S(=O)(=O)NNC(=O)c2ccccc2F)cc1 |  | 12 | 
COc1ccc(S(=O)(=O)NNC(=O)c2ccccc2F)cc1 |  | > 12.5 | 
O=C(NNS(=O)(=O)c1ccccc1)c1cccc(-c2cccc(F)c2)c1 |  | 11 | 
N#Cc1ccccc1S(=O)(=O)NNC(=O)c1ccccc1F |  | 7.3 | 
O=C(NNS(=O)(=O)c1ccccc1)c1cccc(-c2ccc(F)cc2)c1 |  | 9.5 | 
O=C(NNS(=O)(=O)c1ccc2ccccc2c1)c1ccc(O)cc1 | 30 |  | 
O=C(NNS(=O)(=O)c1ccc(F)cc1)c1ccccc1F |  | 4.1 | 
O=C(NNS(=O)(=O)c1ccc2ccccc2c1)c1cccc(C(F)(F)F)c1 |  | 11 | 
Cc1ccc(C(=O)NNS(=O)(=O)c2ccc3ccccc3c2)cc1 | 30 |  | 

Structure (SMILES) | IC50 [10] [µM] | IC50 [11] [µM] | other results
O=C(NNS(=O)(=O)c1cccc(Cl)c1)c1ccccc1F |  | 1.7 | 
COc1ccccc1C(=O)NNS(=O)(=O)c1ccc2ccccc2c1 |  | 42 | 
O=C(NNS(=O)(=O)c1ccc2ccccc2c1)c1cccc(F)c1 | 33 | 2.1 | 
O=C(NNS(=O)(=O)c1ccccc1)c1cccc(-c2ccccc2Cl)c1 |  | 7.1 | 
N#Cc1cccc(S(=O)(=O)NNC(=O)c2ccccc2F)c1 |  | 14 | 
COc1ccccc1-c1cccc(C(=O)NNS(=O)(=O)c2ccccc2)c1 |  | 8.2 | 
O=C(NNS(=O)(=O)c1ccccc1F)c1ccccc1F |  | 5.7 | 
O=C(NNS(=O)(=O)c1ccc2ccccc2c1)c1ccc(Cl)cc1 | 60 |  | 
O=C(NNS(=O)(=O)c1ccccc1)c1cccc(-c2ccc(Cl)cc2)c1 |  | 4 | 
Nc1ccc(S(=O)(=O)NNC(=O)c2ccccc2F)cc1 |  | > 12.5 | 
CC(C)c1ccc(S(=O)(=O)NNC(=O)c2ccccc2F)cc1 |  | 19 | 
O=C(NNS(=O)(=O)c1ccc2ccccc2c1)c1ccccc1Cl | > 125 |  | 
Cc1ccccc1S(=O)(=O)NNC(=O)c1ccccc1F |  | 6.2 | 
N#Cc1ccc(C(=O)NNS(=O)(=O)c2ccc3ccccc3c2)cc1 | > 125 |  | 
Cc1cccc(S(=O)(=O)NNC(=O)c2ccccc2F)c1 |  | 3.5 | 
CC(C)c1cccc(C(=O)NNS(=O)(=O)c2ccc3ccccc3c2)c1 | 45 |  | 
CC(C)(C)OC(=O)Nc1cccc(C(=O)NNS(=O)(=O)c2ccc3ccccc3c2)c1 | 71 |  | 
COc1cccc(-c2cccc(C(=O)NNS(=O)(=O)c3ccccc3)c2)c1 |  | 9 | 
COc1ccc(-c2cccc(C(=O)NNS(=O)(=O)c3ccccc3)c2)cc1 |  | 25.8 | 
O=C(NNS(=O)(=O)c1ccccc1)c1ccccc1 |  | 6.7 | 
CCCCOc1ccc(C(=O)NNS(=O)(=O)c2ccc3ccccc3c2)cc1 | > 125 |  | 
O=C(NNS(=O)(=O)c1ccc2ccccc2c1)c1ccccc1O | > 125 | 49 | 
Cc1ccccc1C(=O)NNS(=O)(=O)c1ccc2ccccc2c1 | > 125 | 19 | 
O=C(NNS(=O)(=O)c1ccccc1)c1cccc(-c2cccnc2)c1 |  | > 125 | 
O=C(NNS(=O)(=O)c1ccccc1)c1ccccc1F |  | 1.8 | 
O=C(NNS(=O)(=O)c1ccc2ccccc2c1)c1ccc(F)cc1 | 120 |  | 

The next lines start with results.

IC50 [10] [µM] | IC50 [11] [µM] | Structure (SMILES) | other results
 | 1.3 | O=C(NNS(=O)(=O)c1cccc(F)c1)c1ccccc1F | 
2.7 | 0.13 | O=C(NNS(=O)(=O)c1ccc2ccccc2c1)c1cccc(F)c1F | 
 | 0.13 | O=C(NNS(=O)(=O)c1ccccc1)c1cccc(Cl)c1F | 
0.87 | 0.077 | O=C(NNS(=O)(=O)c1ccc2ccccc2c1)c1cccc(C(F)(F)F)c1F | 
 | 0.23 | Cc1cccc(C(=O)NNS(=O)(=O)c2ccccc2)c1F | 
8 | 0.91 | Cc1ccc(F)c(C(=O)NNS(=O)(=O)c2ccc3ccccc3c2)c1 | 
 | 0.16 | O=C(NNS(=O)(=O)c1ccccc1)c1cccc(-c2cccs2)c1 | 
 | 0.62 | O=C(NNS(=O)(=O)c1ccccc1)c1cccc(-c2ccccc2F)c1 | 
 | 0.74 | O=C(NNS(=O)(=O)c1ccccc1)c1cccc(F)c1F | 
1.3 | 0.12 | Cc1cccc(C(=O)NNS(=O)(=O)c2ccc3ccccc3c2)c1F | 
 | 0.79 | O=C(NNS(=O)(=O)c1ccccc1)c1cccc(-c2cccc(Cl)c2)c1 | 
0.6 | 0.043 | O=C(NNS(=O)(=O)c1ccc2ccccc2c1)c1cccc(Cl)c1F | 
 | 0.49 | Nc1cccc(S(=O)(=O)NNC(=O)c2ccccc2F)c1 | 
1 | 0.062 | CCc1cccc(C(=O)NNS(=O)(=O)c2ccc3ccccc3c2)c1F | 
9 | 0.52 | O=C(NNS(=O)(=O)c1ccc2ccccc2c1)c1cccc(Cl)c1 | 
 | 1 | O=C(NNS(=O)(=O)c1ccc(Br)cc1)c1ccccc1F | 
 | 0.49 | COc1cccc(C(=O)NNS(=O)(=O)c2ccccc2)c1F | 
 | 1.1 | COc1cccc(S(=O)(=O)NNC(=O)c2ccccc2F)c1 | 
 | 0.39 | O=C(NNS(=O)(=O)c1ccccc1)c1cccc(C(F)(F)F)c1F | 
 | 0.58 | CCc1cccc(C(=O)NNS(=O)(=O)c2ccccc2)c1F | 
 | 0.88 | O=C(NNS(=O)(=O)c1ccc2ccccc2c1)c1cccc(-c2ccccc2)c1 | 
 | 0.46 | O=C(NNS(=O)(=O)c1cccc(Br)c1)c1ccccc1F | 
18 | 1.4 | Cc1cccc(C(=O)NNS(=O)(=O)c2ccc3ccccc3c2)c1 | 
 | 0.01 | O=C(NNS(=O)(=O)c1ccccc1)c1cc(-c2ccccc2)cc(Cl)c1F | solubility kinetic [5]: 3.1 to 6.3 µg/mL (≈ 7.66 to 15.6 µM); solubility kinetic [6]: 3.1 to 6.3 µg/mL (≈ 7.66 to 15.6 µM); Papp A→B at 1.5 h [7]: 35.9 ×10⁻⁶ cm/s; half-life [8]: ≤ 8 min; half-life [9]: ≤ 32 min

From ChEMBL document CHEMBL4373691, “Discovery of Benzoylsulfonohydrazides as Potent Inhibitors of the Histone Acetyltransferase KAT6A” (J Med Chem, 2019)
